Consider 7 compounds from patent publication US11261230B2, “Synthetic somatostatin receptor ligands” (TEL HASHOMER MEDICAL RESEARCH INFRASTRUCTURE AND SERVICES …, priority 2014, dated 2022).

One data set has as its system PANC-1 tumors. The data set is described as follows: In vivo biodistribution in PANC-1 xenograft mice, Maestro fluorescence imaging of harvested tissue. As to conditions: 1 day after administration, tissues as named in the value.
The subject of a further data set is BON1 tumor. The data set can be described thus: In vivo bio-distribution by fluorescence imaging in mice bearing BON1 tumor. Also on record: species or system nude mice. The conditions noted are these: 10 mg/kg IV. The procedure: Pharmacokinetics and bio-distribution of some of the compounds was studied in mouse xenograft models for human cancer. Four pharmaceutical compositions according to the teachings herein, each comprising a single compound according to the teachings herein, were administered intravenously (IV) into lateral tail vein of nude mice bearing BON1 or H116 tumors. Animals were sacrificed at 1, 3, 6 and 24 hours after injection and tumor and normal tissues were excised. Tissue bio-distribution of the compounds were studied using fluorescence imaging techniques.
Experiments were started 7-10 days after the injection, when the tumor diameter was approximately 5-10 mm. […]
Whole-body fluorescence imaging, low-magnification fluorescence microscopy and cellular level fluorescence microscopy methods were used to study tissue biodistribution of the compounds. For these purposes, SZX-12 fluorescence microscope (Olympus, Japan), IX81 inverted fluorescence microscope (Olympus, Japan) equipped with appropriate filter-cubes and digital color camera (DP71, Olympus) were used. Additionally, whole-body fluorescence imaging was performed by WB imaging system (Prizmatix, Israel). Quantitative spectrally-resolved fluorescence imaging was carried out using a spectral imaging (SI) system (SD300, Applied Spectral Imaging, Migdal Ha'Emek, Israel). […]

The target of a further data set is T1, human SSTR5 (Homo sapiens, UniProt P35346).
T1 construct: expressed in transfected cells; host or cells: HEK-293, transient transfection, pcDNA 3.1
The data set is described as follows: Binding to transfected HEK cells expressing a single SSTRx subtype, FACS and fluorescence microscopy. The procedure:
(§1) The affinity of compounds 1-16 to each of the five SSTRx was tested using an in vitro model of transfected cell lines (HEK—human embryonic kidney), each expressing a single human SSTRx subtype. Biological activity assessment of the compounds to define a specific affinity to each subtype was performed by FACS and fluorescence imaging methods.
(§2) Human SSTRx were expressed in the cells by transient transfection. Each SSTR was expressed separately, creating five different cell lines using human gene transcript.
(§3) The transfection process is illustrated in FIG. 1. The transient transfection process was carried out before each experiment. Briefly, HEK cells were cultured in standard cell growth conditions. For testing, the cells were transferred into 96-well plates. The tested compounds were dissolved in DMSO and then diluted in a buffer solution to a final DMSO concentration of 5% as a composition according to the teachings herein. Various amounts of the thus-prepared compositions were added to the cells in medium in the 96-well plates and allowed to incubate for between 1 and 24 hours. Binding was determined using fluorescent microscopy and FACS.
(§4) Qualitative assessment of binding efficiency was done by visual inspection and digital photography using an inverted fluorescent microscope. Quantitative assessment was done using FACS.
(§5) HEK-293 cells (human embryonic kidney) were grown in Dulbecco's modified Eagle's medium (DMEM) supplemented with 4 mM glutamine, 10% fetal bovine serum (FBS) and 100 units/ml penicillin/streptomycin at 37° C./5% carbon dioxide. One day prior to transfection, the cells were trypsinized, counted and plated at a density of 3×10^5 per 35 mm diameter dish. Until 70% confluency, cells were transiently transfected with the pcDNA 3.1 vector bearing the coding region for the human SSTR human somatostatin receptor subtypes SSTR1-SSTR5. Transfections were carried out with JetPei transfection reagent (Polyplus-transfection, NY, USA) according to the manufacturer's recommendation. Briefly, 2 micrograms of plasmid DNA and 6 microliter of JetPei transfection reagent were used for each transfection. Each of the components were resuspended in 100 microliter of 150 mM NaCl, mixed and incubated for 25 minutes at room temperature and after incubation added to cells.
(§6) Cells were then seeded in a 96-well flat-bottom microplate (Costar, Corning, N.Y.) at a concentration of 5×10^4 cells/well. Twelve hours later, the supernatant was removed and replaced with fresh DMEM containing various (in the nM range) concentrations of tested compounds 1-16. The cells were incubated for additional time intervals ranging from 0.5-24 hr. At the end of the incubation period, supernatant was discarded and the cells were washed twice with cold PBS. The plates were examined using IX81 inverted microscope (Olympus, Japan) equipped with […] digital camera. Additionally, a FACS assay was used for quantitative analysis.
(§7) Quantitative assessment of binding affinity of Compounds 1-16 was performed by FACS in the transfected HEK cell model.
(§8) Quantitatively, specific binding affinity was assessed as the percentage of double stained [(GR=green and red indicating transfection)/(R is total red) less (G is green indicating unspecific binding)]: specific binding affinity=[GR/R−G]

The target of another data set is T2, human SSTR4 (Homo sapiens, UniProt P31391).
T2 construct: expressed in transfected cells; host or cells: HEK-293, transient transfection, pcDNA 3.1
The data set is described as follows: Binding to transfected HEK cells expressing a single SSTRx subtype, FACS. The procedure:
as §1, §2, §3, §4, §5, §6, §7, §8

Another data set has as its system SSTR1-SSTR5. The conditions noted are these: background statement; cited from earlier work.
Setting [1] is: FACS, transfected HEK, specific binding affinity = percentage double stained [GR/R−G], 0 = no binding detected.
Setting [2] is: Table 2 normalized according to the highest binding affinity of that compound.
Setting [3] is: Table 2 normalized to Compound 1 (=100).

*1 amine or outer side, *2 acyl side, *3 side chain or, on linkers, in order; H or OH if unused. Where a SMILES comes first, the peptide text is derived from it. Bridges are numbered along the chain shown (N, C = ends). [ ]: non-standard residue; d: D form. The star is where a group is joined. FITC = O=C1OC2(c3ccc(O)cc3Oc3cc(O)ccc32)c2ccc(NC(=S)*)cc21; N(2-mercaptoethyl)Gly = O=C(CN(CCS[*:3])[*:1])[*:2]; GABA = NCCCC(=O)O

T1 sequence (P35346 whole entry): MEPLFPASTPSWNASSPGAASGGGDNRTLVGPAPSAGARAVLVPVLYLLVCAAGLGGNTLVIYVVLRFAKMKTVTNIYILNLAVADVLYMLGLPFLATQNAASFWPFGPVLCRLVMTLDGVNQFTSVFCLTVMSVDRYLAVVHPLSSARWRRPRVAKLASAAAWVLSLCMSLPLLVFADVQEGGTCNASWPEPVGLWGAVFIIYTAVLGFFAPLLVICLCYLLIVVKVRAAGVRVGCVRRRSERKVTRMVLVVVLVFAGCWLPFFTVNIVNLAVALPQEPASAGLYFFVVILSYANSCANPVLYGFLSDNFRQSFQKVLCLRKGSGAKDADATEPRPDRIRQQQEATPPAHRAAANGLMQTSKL
T2 sequence (P31391 whole entry): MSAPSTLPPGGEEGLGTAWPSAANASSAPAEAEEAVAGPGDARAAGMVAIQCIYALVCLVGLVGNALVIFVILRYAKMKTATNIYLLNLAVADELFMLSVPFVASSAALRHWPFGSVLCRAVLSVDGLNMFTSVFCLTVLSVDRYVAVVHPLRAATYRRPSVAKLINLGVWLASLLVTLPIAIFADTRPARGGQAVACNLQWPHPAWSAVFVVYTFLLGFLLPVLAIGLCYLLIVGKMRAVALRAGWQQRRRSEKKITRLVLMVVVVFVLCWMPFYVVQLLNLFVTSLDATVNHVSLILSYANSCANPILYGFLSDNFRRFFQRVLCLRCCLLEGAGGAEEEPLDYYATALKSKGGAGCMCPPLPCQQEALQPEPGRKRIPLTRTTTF
Experimental for PANC-1 tumors: Five different pharmaceutical compositions were prepared, each by dissolving 1 mg of a different Somatostatin receptor ligand in 1 liter PBS.
Solid human-derived tumors were induced in 15 nude mice by subcutaneous injection of a suspension containing ˜5□10^5 human cancer cells (PANC-1) into the flank area of the mice.
2-3 weeks after the injection of the cancer cells, it was observed that the mice developed solid tumors with diameters of approximately 5-10 mm.
0.3 ml of each one of the five pharmaceutical compositions were systemically administered to three of the fifteen xenograft mice by injection into the tail vein using a 30 G needle.
The fifteen mice were sacrificed and from the bodies tumors, pancreas, spleen, kidney and liver were harvested.
The fluorescence of the harvested tissue was determined using the Maestro™ in vivo fluorescence imaging system (Cambridge Research & Instrumentation, Inc., Woburn, Mass., USA).

In the case of `C[C@@H](O)[C@@H]1NC(=O)[C@H](CCCCN)NC(=O)[C@@H](Cc2c[nH]c3ccccc23)NC(=O)[C@H](Cc2c[nH]c3ccccc23)NC(=O)[C@H](Cc2ccccc2)NC(=O)[C@@H](NC(=O)[C@@H](Cc2ccccc2)NC(=O)CCCNC(=S)Nc2ccc3c(c2)C(=O)OC32c3ccc(O)cc3Oc3cc(O)ccc32)CSSCCN(CC(N)=O)C(=O)[C@H](Cc2ccccc2)NC1=O` [Compound 1, FITC-GABA-DPhe-Cys*-Phe-Trp-DTrp-Lys-Thr-Phe-GlyS2*-NH2, reference compound], the “Intensity in healthy tissue (in words)” value in the data set on PANC-1 tumors was “undetectable in liver tissue”. Still for that read-out and setting: the value for `C[C@@H](O)[C@@H]1NC(=O)[C@H](CCCCN)NC(=O)[C@@H](Cc2c[nH]c3ccccc23)NC(=O)[C@H](Cc2ccccc2)NC(=O)[C@@H](NC(=O)[C@H](CCCNC(=N)N)NC(=O)[C@@H](Cc2ccccc2)NC(=O)CCCNC(=S)Nc2ccc3c(c2)C(=O)OC32c3ccc(O)cc3Oc3cc(O)ccc32)CSSCCN(CC(N)=O)C(=O)[C@H](Cc2ccccc2)NC1=O` [Compound 2, FITC-GABA-D-Phe-Arg-Cys-Phe-D-Trp-Lys-Thr-Phe-GlyS2] ({FITC-GABA}-[dF]RCF[dW]KTF[N(2-mercaptoethyl)Gly]-NH2; disulfide 3-9) was “undetectable in spleen, kidney and liver tissue”. Turning to `C[C@@H](O)[C@@H]1NC(=O)[C@H](CCCN)NC(=O)[C@@H](Cc2c[nH]c3ccccc23)NC(=O)[C@H](Cc2c[nH]c3ccccc23)NC(=O)[C@H](Cc2ccccc2)NC(=O)[C@@H](NC(=O)[C@@H](Cc2ccccc2)NC(=O)CCCNC(=S)Nc2ccc3c(c2)C(=O)OC32c3ccc(O)cc3Oc3cc(O)ccc32)CSSCCN(CC(N)=O)C(=O)[C@H](Cc2ccccc2)NC1=O` [Compound 3, FITC-GABA-D-Phe-Cys-Phe-Trp-D-Trp-Orn-Thr-Phe-GlyS2], the “Intensity in healthy tissue (in words)” value with PANC-1 tumors was “undetectable in spleen, kidney and liver tissue”. Further, the “Time of maximal fluorescence signal in all tissues after administration” value with BON1 tumor (spleen, pancreas and tumor, FIG. 10) came out at 6 h. Consider `C[C@@H](O)[C@@H]1NC(=O)[C@H](CCCCN)NC(=O)[C@@H](Cc2c[nH]c3ccccc23)NC(=O)[C@H](Cc2c[nH]c3ccccc23)NC(=O)[C@H](Cc2ccc(O)cc2)NC(=O)[C@@H](NC(=O)[C@@H](Cc2ccccc2)NC(=O)CCCNC(=S)Nc2ccc3c(c2)C(=O)OC32c3ccc(O)cc3Oc3cc(O)ccc32)CSSCCN(CC(N)=O)C(=O)[C@H](Cc2ccccc2)NC1=O` [Compound 4, FITC-GABA-D-Phe-Cys-Tyr-Trp-D-Trp-Lys-Thr-Phe-GlyS2] ({FITC-GABA}-[dF]CYW[dW]KTF[N(2-mercaptoethyl)Gly]-NH2; disulfide 2-9), for which the “Pattern of bio-distribution, order of fluorescence in tissue samples” value in the data set on BON1 tumor (fluorescence microscopy, 24 hrs after administration) is on record as “tumor>spleen>pancreas>kidney>liver”. In the case of `CC(=O)NCCCC[C@@H]1NC(=O)[C@@H](Cc2c[nH]c3ccccc23)NC(=O)[C@H](Cc2c[nH]c3ccccc23)NC(=O)[C@H](Cc2ccccc2)NC(=O)[C@@H](NC(=O)[C@@H](Cc2ccccc2)NC(=O)CCCNC(=S)Nc2ccc3c(c2)C(=O)OC32c3ccc(O)cc3Oc3cc(O)ccc32)CSSCCN(CC(N)=O)C(=O)[C@H](Cc2ccccc2)NC(=O)[C@H]([C@@H](C)O)NC1=O` [Compound 14, FITC-GABA-D-Phe-Cys-Phe-Trp-D-Trp-LysAc-Thr-Phe-GlyS2], the “Relative binding affinity SSTR5” value on human SSTR5 (setting [1]) came out at 2. Also, the “Adjusted binding affinity SSTR5” value on human SSTR5 (setting [2]) is reported as 0.67. Moreover, on human SSTR5 (setting [3]), the “Binding affinity to SSTR5 relative to Compound 1” value was found to be 7. Also, the “Relative binding affinity SSTR4” value at human SSTR4 (setting [1]) turned out to be 3. Moreover, at human SSTR4 (setting [2]), the “Adjusted binding affinity SSTR4” value is given as 1. The “Binding affinity to SSTR4 relative to Compound 1” value at human SSTR4 (setting [3]) is 13. Turning to `CC(C)[C@@H]1NC(=O)[C@H](CCCCN)NC(=O)[C@@H](Cc2c[nH]c3ccccc23)NC(=O)[C@H](Cc2ccc(O)cc2)NC(=O)[C@@H](NC(=O)[C@H](N)Cc2ccc3ccccc3c2)CSSC[C@@H](C(=O)N[C@H](C(N)=O)[C@@H](C)O)NC1=O` [Lanreotide, Napht-Cys*-Tyr-Trp-Lys-Val-Cys*-Thr], the “Affinity of binding to the SSTRx (in words)” value in the data set with SSTR1-SSTR5 was “high-affinity binding to SSTR2, moderate affinity binding to SSTRR3 and SSTR5, and almost no affinity binding to SSTR1 and SSTR4”. Turning to “DPhe-Cys*-Phe-DTrp-Lys-Thr-Cys*-Throl [Octreotide]”, the “Affinity of binding to the SSTRx (in words)” value in the data set with SSTR1-SSTR5 is “high-affinity binding to SSTR2, moderate affinity binding to SSTRR3 and SSTR5, and almost no affinity binding to SSTR1 and SSTR4”.
